# Measured values published in patent publication US12576059B2, “Methods and compositions for treatment of inflammatory disease” (priority 2021, dated 2026).
# Legend:
# [1] = tested on: LPS induced acute lung inflammation; assay: Example 1: LPS induced acute lung inflammation, interalveolar septa distance; format: in vivo, mice
# Description: LPS administration is known to promote inflammation through various mechanisms including secretion of pro-inflammatory cytokines, eicosanoids and induction of ROS. This example employed LPS to ascertain the extent of inflammation arising from ROS induced oxidation of H-AA versus D-AA in the lungs of mice. Specifically, four groups of mice were used. The first group was control mice treated with H-LA control mice. The second group of mice received a 6-week course of D-LA. It is understood that in vivo conversion of a portion of both H-LA and D-LA occurs to provide for AA and 13,13-D2-AA respectively. The third group of mice received a 6-week course of H-AA. The fourth group of mice received a 6-week course of D-AA. All groups then received a single intranasal administration of LPS to induce acute lung inflammation. The degree of the inflammatory response was based on the interalveolar septa distance where the larger the distance of the septa, the greater the degree of inflammation. The animals were sacrificed and the interalveolar septa distance was measured. Table 1 provides an average degree of spatial distance for the interalveolar septa for the results of all groups.
# [2] = set-up: species or system mice; conditions: in vivo
# Description: Male and Female BALB/c and C57BL/6 mice were provided with standard environmental conditions i.e., 22±1° C., 55±5% humidity and 12 h light/dark cycle with free food and water access. At the age of six weeks, animals were split into 8 groups (n=160 total, 20 of each gender) and were continuously fed ad libitum on the diet containing either H-AA or D-AA for 2, 4, 6 or 8 weeks at the daily rate of ca. 5 g of diet per mouse for the duration of the study. The other two groups of animals (n=40, 20 of each gender) received neither PUFA-enriched diets nor LPS served as controls. The body weight and food intake were measured once a week. […]
# The relative ratio of H-AA to D-AA was determined by gas chromatography (GC) coupled to chemical ionization mass spectrometry. […]
# As the first step to test this hypothesis, we studied the metabolic effect of such a dietary supplementation. We determined the actual content of D-AA and then performed a washout experiment after a long period of supplementation by switching from D-AA to H-AA diet by MS analysis of several mouse tissues in the AA-diet fed mice. […]
# [3] = tested on: healthy mice; conditions: mouse, in vivo
# Description: Mouse diet was from Research Diets (New Brunswick, NJ) based on fat-free AIN-93G. Fat was added at 11.3% by weight total fat and 0.25% either normal H-AA or D-AA respectively (Table 5).
# Male and Female BALB/c and C57BL/6 mice were provided with standard environmental conditions i.e., 22±1° C., 55±5% humidity and 12 h light/dark cycle with free food and water access. At the age of six weeks, animals were split into 8 groups (n=160 total, 20 of each gender) and were continuously fed ad libitum on the diet containing either H-AA or D-AA for 2, 4, 6 or 8 weeks at the daily rate of ca. 5 g of diet per mouse for the duration of the study. The other two groups of animals (n=40, 20 of each gender) received neither PUFA-enriched diets nor LPS served as controls. The body weight and food intake were measured once a week. After completing the appropriate diet course, half of the mice in each group (10 females and 10 males) (i) underwent the procedure of bronchoalveolar lavage (BAL) to accomplish cytological smears, (ii) were subjected to tissue harvesting and collection of colon contents (after humane euthanasia with lethal dose of sodium thiopental, 100 mg/kg intravenously). On the ninth week of this diet course, the other half of the group was administered 1 mg/kg of intranasal (IN) LPS from Escherichia coli O111:B4 (Sigma Aldrich) 24 hours prior to BAL and subsequent euthanasia. 40 D-AA fed animals (20 males, 20 females) were switched to the H-AA diet for washout experiments. […]
# Lung, stomach and colon samples were fixed with 4% formaldehyde (freshly prepared from paraformaldehyde), paraffin embedded and cut into 2-4 μm sections. For routine histology, all fixed tissue sections were stained with hematoxylin-eosin (H&E). All slides were evaluated at 10 fields each using a Genetic Pro Bino light microscope (A) and photographed with a digital camera (Delta Optical). Stomach and colon tissue sections were analyzed for signs of active and chronic inflammation, formation of lymph follicles, and hyperplasia of epithelial cells. The severity of lung injury was scored according to lung pathological changes, including interalveolar and perivascular hemorrhages, peri-vascular and peribronchial infiltration, perivascular edema, thickness of alveolar wall, alveolar space value, and emphysematous transformations. Lung tissue samples were additionally stained with commercially available Martius Scarlet Blue (MSB) stain kit (Avantik, USA) for fibrin visualization. The presence of homogeneous fibrin masses of yellow, pink or red color in the lung blood vessels were interpreted as thrombotic masses. […]
# Cell free BAL fluid supernatants as well as colon tissue samples were analyzed using commercially available Mouse IL-1B ELISA Kit (R&D systems, Lot P265854, USA) and the Biotek ELx-808 microplate reader (Biotek, USA) according to the instructions recommended by the manufacturer).
compound,measurement,setting,value
"[2H]C([2H])(/C=C\CCCCC)/C=C\C([2H])([2H])/C=C\C([2H])([2H])/C=C\CCCC(=O)O [D-AA, 7,7,10,10,13,13-D6-arachidonic acid]",Interalveolar space (average spatial distance for the interalveolar septa),"[1]; 6-week course, then single intranasal LPS",4.1 μm
same,reduction in the spatial distance for the interalveolar septa,"[1]; D-LA relative to H-LA, comparator for D-AA not stated",~60%
same,incorporation of the deuterated form,"[2]; both, BALB/c and C57BL/6, mouse, 12 weeks",more than 60%
same,washout with H-AA feeding,[2]; mouse,more rapid than brain
same,alveolar spaces,[3],No relevant changes
same,"average thickness of interalveolar septa, H-AA versus D-AA",[3],did not significantly differ
same,tolerability,[3],well tolerated without apparent adverse reactions
